Measured values reported in patent US20220324815A1, “2-PHENOXY-PYRIMIDINE DERIVATIVES AS HERBICIDAL COMPOUNDS” (SYNGENTA CROP PROTECTION AG, priority 2019, published 2022).

Key:
Format in all cases: in vivo
Details in all cases: 250 g/ha unless otherwise stated, evaluated after 13 days, five-point scale
[1] = tested on: Ipomoea hederacea (IPOHE); test: Test 1 glasshouse herbicide test, post-emergence application (Table B1)
How it was run: (§1)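 Score is % phytotoxicity after 13 days, binned 1 (0–20%) to 5 (81–100%). Compound given at 250 g/ha unless stated, as acetone/water (50:50) spray with 0.5% Tween 20, one day post-sowing (pre-emergence) or after 8 days' growth (post-emergence); glasshouse at 24/16 °C day/night, 14 h light, 65% humidity.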

[2] = tested on: Setaria faberi (SETFA); test: as above
How it was run: as §1

[3] = tested on: Lolium perenne (LOLPE); test: as above
How it was run: as §1

[4] = tested on: Solanum nigrum (SOLNI); test: as above
How it was run: as §1

[5] = tested on: Echinochloa crus-galli (ECHCG); test: as above
How it was run: as §1

[6] = tested on: Amaranthus retoflexus (AMARE); test: as above
How it was run: as §1

[7] = tested on: Ipomoea hederacea (IPOHE); test: Test 1 glasshouse herbicide test, pre-emergence application (Table B2)
How it was run: as §1

[8] = tested on: Setaria faberi (SETFA); test: as above
How it was run: as §1

[9] = tested on: Lolium perenne (LOLPE); test: as above
How it was run: as §1

[10] = tested on: Solanum nigrum (SOLNI); test: as above
How it was run: as §1

[11] = tested on: Echinochloa crus-galli (ECHCG); test: as above
How it was run: as §1

[12] = tested on: Amaranthus retoflexus (AMARE); test: as above
How it was run: as §1

SMILES | % phytotoxicity IPOHE, post-emergence application [1] | % phytotoxicity SETFA, post-emergence application [2] | % phytotoxicity LOLPE, post-emergence application [3] | % phytotoxicity SOLNI, post-emergence application [4] | % phytotoxicity ECHCG, post-emergence application [5] | % phytotoxicity AMARE, post-emergence application [6] | % phytotoxicity IPOHE, pre-emergence application [7] | % phytotoxicity SETFA, pre-emergence application [8] | % phytotoxicity LOLPE, pre-emergence application [9] | % phytotoxicity SOLNI, pre-emergence application [10] | % phytotoxicity ECHCG, pre-emergence application [11] | % phytotoxicity AMARE, pre-emergence application [12]
FC(F)(F)CCSc1ccccc1Oc1ncc(Cl)cn1 [Al] | 4 (4=61 to 80%) | 4 (4=61 to 80%) | 4 (4=61 to 80%) | 4 (4=61 to 80%) | 4 (4=61 to 80%) | 5 (5=81 to 100%) | – | – | – | – | – | –
FC(F)(F)CCSc1ccccc1Oc1ncc(Cl)cn1 [Compound A1] | – | – | – | – | – | – | 3 (3=41 to 60%) | 5 (5=81 to 100%) | 3 (3=41 to 60%) | 4 (4=61 to 80%) | 4 (4=61 to 80%) | 5 (5=81 to 100%)
[O-][S+](CCC(F)(F)F)c1ccccc1Oc1ncc(Cl)cn1 (stereo not shown) [Compound A2] | 4 (4=61 to 80%) | 4 (4=61 to 80%) | 4 (4=61 to 80%) | 5 (5=81 to 100%) | 4 (4=61 to 80%) | 5 (5=81 to 100%) | 2 (2=21 to 40%) | 5 (5=81 to 100%) | 3 (3=41 to 60%) | 5 (5=81 to 100%) | 5 (5=81 to 100%) | 5 (5=81 to 100%)
O=S(=O)(CCC(F)(F)F)c1ccccc1Oc1ncc(Cl)cn1 [Compound A3] | 3 (3=41 to 60%) | 4 (4=61 to 80%) | 4 (4=61 to 80%) | 5 (5=81 to 100%) | 4 (4=61 to 80%) | 5 (5=81 to 100%) | 3 (3=41 to 60%) | 5 (5=81 to 100%) | 4 (4=61 to 80%) | 4 (4=61 to 80%) | 5 (5=81 to 100%) | 5 (5=81 to 100%)
FC(F)(F)CCCSc1ccccc1Oc1ncc(Cl)cn1 [Compound A4, 5-chloro-2-[2-(4,4,4-trifluorobutylsulfanyl)phenoxy] pyrimidine] | 4 (4=61 to 80%) | 5 (5=81 to 100%) | 4 (4=61 to 80%) | 5 (5=81 to 100%) | 4 (4=61 to 80%) | 5 (5=81 to 100%) | 3 (3=41 to 60%) | 5 (5=81 to 100%) | 4 (4=61 to 80%) | 4 (4=61 to 80%) | 5 (5=81 to 100%) | 5 (5=81 to 100%)
[O-][S+](CCCC(F)(F)F)c1ccccc1Oc1ncc(Cl)cn1 (stereo not shown) [Compound A5] | 4 (4=61 to 80%) | 5 (5=81 to 100%) | 5 (5=81 to 100%) | 5 (5=81 to 100%) | 5 (5=81 to 100%) | 5 (5=81 to 100%) | 5 (5=81 to 100%) | 5 (5=81 to 100%) | 5 (5=81 to 100%) | 5 (5=81 to 100%) | 5 (5=81 to 100%) | 5 (5=81 to 100%)
O=S(=O)(CCCC(F)(F)F)c1ccccc1Oc1ncc(Cl)cn1 [Compound A6] | 3 (3=41 to 60%) | 4 (4=61 to 80%) | 2 (2=21 to 40%) | 5 (5=81 to 100%) | 3 (3=41 to 60%) | 5 (5=81 to 100%) | 2 (2=21 to 40%) | 5 (5=81 to 100%) | 2 (2=21 to 40%) | 3 (3=41 to 60%) | 4 (4=61 to 80%) | 5 (5=81 to 100%)
N#Cc1cccc(Oc2ncc(Cl)cn2)c1S(=O)(=O)CCCOC(F)(F)F [Compound A117] | 3 (3=41 to 60%) | 4 (4=61 to 80%) | – | – | 4 (4=61 to 80%) | 5 (5=81 to 100%) | 5 (5=81 to 100%) | 5 (5=81 to 100%) | – | – | 4 (4=61 to 80%) | 5 (5=81 to 100%)
N#Cc1cccc(Oc2ncc(Br)cn2)c1S(=O)(=O)CCCC(F)(F)F [Compound A118] | 4 (4=61 to 80%) | 4 (4=61 to 80%) | – | – | 4 (4=61 to 80%) | 5 (5=81 to 100%) | 5 (5=81 to 100%) | 5 (5=81 to 100%) | – | – | 5 (5=81 to 100%) | 5 (5=81 to 100%)
N#Cc1cccc(Oc2ncc(Br)cn2)c1SCCCC(F)(F)F [Compound A119] | 4 (4=61 to 80%) | 4 (4=61 to 80%) | – | – | 4 (4=61 to 80%) | 5 (5=81 to 100%) | 5 (5=81 to 100%) | 5 (5=81 to 100%) | – | – | 5 (5=81 to 100%) | 5 (5=81 to 100%)
N#Cc1cccc(Oc2ncc(Br)cn2)c1S(=O)(=O)CCCCC(F)(F)F [Compound A120] | 4 (4=61 to 80%) | 3 (3=41 to 60%) | – | – | 3 (3=41 to 60%) | 4 (4=61 to 80%) | 5 (5=81 to 100%) | 4 (4=61 to 80%) | – | – | 3 (3=41 to 60%) | 4 (4=61 to 80%)
N#Cc1cccc(Oc2ncc(Br)cn2)c1SCCCCC(F)(F)F [Compound A121] | 3 (3=41 to 60%) | 4 (4=61 to 80%) | – | – | 3 (3=41 to 60%) | 5 (5=81 to 100%) | 2 (2=21 to 40%) | 5 (5=81 to 100%) | – | – | 3 (3=41 to 60%) | 5 (5=81 to 100%)
